Data from publication PMC10180488, “Novel Derivatives of Eugenol as a New Class of PPARγ Agonists in Treating Inflammation: Design, Synthesis, SAR Analysis and In Vitro Anti-Inflammatory Activity” (Molecules, 2023).
Values joined by “and” are separate entries in the source; they are usually repeats but may differ in a detail not shown here. Identical values can stand only once.

Columns and labels:
human PPARγ- LBD = biological target: T1, human PPARγ- LBD (Homo sapiens, UniProt P37231); assay: Lanthascreen TR-FRET PPARγ competitive binding assay; settings: for IC50: Lanthascreen TR-FRET competitive binding; for Raw Data / Raw Data - Background: TR-FRET
T1 construct: a mixture of a human PPARγ- LBD labelled with glutathione S-transferase (GST)
T1 sequence (P37231 238-503 limits assumed): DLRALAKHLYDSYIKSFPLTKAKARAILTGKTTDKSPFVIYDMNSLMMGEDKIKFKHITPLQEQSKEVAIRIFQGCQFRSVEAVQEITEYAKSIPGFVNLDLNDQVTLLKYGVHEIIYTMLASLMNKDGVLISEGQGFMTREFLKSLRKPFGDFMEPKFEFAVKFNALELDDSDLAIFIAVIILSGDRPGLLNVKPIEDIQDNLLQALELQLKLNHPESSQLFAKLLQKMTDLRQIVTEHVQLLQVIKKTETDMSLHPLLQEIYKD
Experimental: Using the Lanthasreen TR-FRET assay, the synthesized compounds were first preliminary tested for the PPARγ binding affinity. […] A chemical under test displaces the tracer from PPAR-LBD, which lowers the TR-FRET ratio and decreases the FRET signal Figure 8 [33].
A multimode low-volume proxy plate reader was used to read the plates after one hour of incubation. Then, a mixture of a human PPARγ- LBD labelled with glutathione S-transferase (GST), a fluorescent small pan-PPAR ligand (FluormoneTM Pan-PPAR Green), and terbium-labeled anti-GST antibody was added.

[1] = tested on: human red blood cells (HRBC); assay: HRBC membrane stabilization method; settings: for HRBC membrane stabilization (percentage protection against HRBC lysis): mean ± SD (n = 3); for IC50: Homo sapiens, Erythrocyte, read-out: IC50 Values, HRBC membrane stabilization method
Experimental: The principle of this procedure is to stabilize the membrane of human red blood cells by hypotonic membrane lysis. […] Lysosomal enzyme levels typically decrease as the HRBC membrane is stabilized.
The packed cells in this blood solution were separated after centrifugation at 3000 rpm [41]. The packed cells were cleaned using an isosaline solution, and then, isosaline was used to prepare a 10% v/v suspension. This HRBC suspension was employed to estimate its anti-inflammatory properties. Different concentrations of the synthesized compounds and the reference standard were each combined with 1 mL of phosphate buffer (pH 7.4), 2 mL of hyposaline, and 0.5 mL of HRBC solution. A total of 2.0 mL of distilled water was utilized as the control. The assay mixtures were all centrifuged at 3000 rpm after 30 min of incubation at 37°C. The following formula was used to determine the percentage of stabilized HRBC membranes. Percentage protection= 100 − (OD sample/OD control) × 100

egg albumin = egg albumin (Gallus gallus, UniProt P01012); assay: Albumin denaturation assay; type: biochemical, hen; settings: mean ± SD (n = 3), read-out: Percentage inhibition of denaturation of albumin
egg albumin, sequence (P01012 2-386): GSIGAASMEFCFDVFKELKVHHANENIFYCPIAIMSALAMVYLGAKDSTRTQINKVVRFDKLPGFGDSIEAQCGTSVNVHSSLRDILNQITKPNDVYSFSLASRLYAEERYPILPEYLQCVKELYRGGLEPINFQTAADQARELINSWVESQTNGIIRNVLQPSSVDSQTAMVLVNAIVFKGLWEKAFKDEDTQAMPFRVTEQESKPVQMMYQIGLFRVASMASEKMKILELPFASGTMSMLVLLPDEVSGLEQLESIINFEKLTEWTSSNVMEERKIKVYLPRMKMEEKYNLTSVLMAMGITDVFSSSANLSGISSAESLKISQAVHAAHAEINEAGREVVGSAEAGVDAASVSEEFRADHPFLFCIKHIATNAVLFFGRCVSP
Experimental: Inflammation is accompanied by protein denaturation. Tissue protein denaturation is a well-established cause of Inflammatory illnesses. Inflammatory disorders including rheumatoid arthritis, diabetes, and cancer have been linked to the denaturation of proteins. The ability of a substance to stop proteins from becoming denaturized has a role in the prevention of inflammatory disorders. […] Denaturation of proteins is accomplished by keeping the reaction mixture in a water bath at 70 °C for […].
Minor modifications were made to Mizushima and Kobayashi’s and Sakat et al. methodologies. The reaction mixture containing 0.2 mL of egg albumin (from a fresh hen’s egg) is mixed with 2.8 mL of phosphate-buffered saline (PBS, pH 6.4) and 2 mL of synthesized compounds in varying concentrations. The mixture was then heated at 70 °C for 5 min after being incubated at 37 °C for approximately 15–20 min. After cooling, their absorbance was measured at 660 nm spectrometrically. Three duplicates of the experiment were carried out. […] Percentage inhibition = (OD control − OD sample/OD control) × 100

SMILES	IC50 (human PPARγ- LBD)	Raw Data (human PPARγ- LBD; 0.0000512 µM)	Raw Data - Background (human PPARγ- LBD; 0.0000512 µM)	Raw Data (human PPARγ- LBD; 0.000256 µM)	Raw Data - Background (human PPARγ- LBD; 0.000256 µM)	HRBC membrane stabilization (percentage protection against HRBC lysis) ([1]; 6.25 µM)	HRBC membrane stabilization (percentage protection against HRBC lysis) ([1]; 12.5 µM)	HRBC membrane stabilization (percentage protection against HRBC lysis) ([1]; 25 µM)	HRBC membrane stabilization (percentage protection against HRBC lysis) ([1]; 50 µM)	HRBC membrane stabilization (percentage protection against HRBC lysis) ([1]; 100 µM)	HRBC membrane stabilization (percentage protection against HRBC lysis) ([1]; 200 µM)	HRBC membrane stabilization (percentage protection against HRBC lysis) ([1]; 400 µM)	IC50 [1]	inhibition at 6.25 µM (egg albumin)	inhibition at 12.5 µM (egg albumin)	inhibition at 25 µM (egg albumin)	inhibition at 50 µM (egg albumin)	inhibition at 100 µM (egg albumin)	inhibition at 200 µM (egg albumin)	inhibition at 400 µM (egg albumin)	further results
C=CCc1ccc(OCC(=O)Nc2cccc(C(F)(F)F)c2)c(OC)c1 [Compound 1d, 2-(4-Allyl-2-methoxyphenoxy)-N-[(3-trifluoromethyl)phenyl]acetamide]	6.47 µM	2.02 RLU	1.876 RLU	2.04 RLU	1.881 RLU	8.85 ± 0.36%	17.77 ± 0.46%	28.72 ± 0.46%	34.74 ± 0.56%	45.51 ± 0.28%	56.45 ± 0.31%	67.40 ± 0.28%	66.3 µM	4.21 ± 0.37%	8.79 ± 0.32%	14 ± 0.31%	18.8 ± 0.39%	32.46 ± 0.32%	38.49 ± 0.37%	49.09 ± 0.18%	Raw Data (human PPARγ- LBD; 0.00128 µM): 2 RLU; Raw Data - Background (human PPARγ- LBD; 0.00128 µM): 1.79 RLU; Raw Data (human PPARγ- LBD; 0.0064 µM): 2.061 RLU; Raw Data - Background (human PPARγ- LBD; 0.0064 µM): 1.836 RLU; Raw Data (human PPARγ- LBD; 0.032 µM): 1.99 RLU; Raw Data - Background (human PPARγ- LBD; 0.032 µM): 1.875 RLU; Raw Data (human PPARγ- LBD; 0.16 µM): 1.945 RLU; Raw Data - Background (human PPARγ- LBD; 0.16 µM): 1.78 RLU; Raw Data (human PPARγ- LBD; 0.8 µM): 2.018 RLU; Raw Data - Background (human PPARγ- LBD; 0.8 µM): 1.89 RLU; Raw Data (human PPARγ- LBD; 4 µM): 1.542 RLU; Raw Data - Background (human PPARγ- LBD; 4 µM): 1.307 RLU; Raw Data (human PPARγ- LBD; 20 µM): 0.593 RLU; Raw Data - Background (human PPARγ- LBD; 20 µM): 0.497 RLU; Raw Data (human PPARγ- LBD; 100 µM): 0.6527 RLU; Raw Data - Background (human PPARγ- LBD; 100 µM): 0.4876 RLU
C=CCc1ccc(OCC(=O)Nc2ccccc2)c(OC)c1 [Compound 1a, 2-(4-Alyl-2-methoxyphenoxy)-N-phenylacetamide]	29.8 µM	1.916 RLU	1.681 RLU	1.915 RLU	1.68 RLU	4.79 ± 0.48%	10.45 ± 0.38%	21.40 ± 0.36%	28.78 ± 0.66%	37.88 ± 0.28%	47.23 ± 0.48%	60.88% and 60.88 ± 0.36%	79.5 µM	1.67 ± 0.37%	5.32 ± 0.37%	10.2 ± 0.24%	14.5 ± 0.43%	19.2 ± 0.24%	25.1 ± 0.31%	32.3 ± 0.37%	Raw Data (human PPARγ- LBD; 0.00128 µM): 1.916 RLU; Raw Data - Background (human PPARγ- LBD; 0.00128 µM): 1.681 RLU; Raw Data (human PPARγ- LBD; 0.0064 µM): 1.92 RLU; Raw Data - Background (human PPARγ- LBD; 0.0064 µM): 1.685 RLU; Raw Data (human PPARγ- LBD; 0.032 µM): 2.058 RLU; Raw Data - Background (human PPARγ- LBD; 0.032 µM): 1.823 RLU; Raw Data (human PPARγ- LBD; 0.16 µM): 1.971 RLU; Raw Data - Background (human PPARγ- LBD; 0.16 µM): 1.736 RLU; Raw Data (human PPARγ- LBD; 0.8 µM): 1.899 RLU; Raw Data - Background (human PPARγ- LBD; 0.8 µM): 1.664 RLU; Raw Data (human PPARγ- LBD; 4 µM): 1.717 RLU; Raw Data - Background (human PPARγ- LBD; 4 µM): 1.483 RLU; Raw Data (human PPARγ- LBD; 20 µM): 1.047 RLU; Raw Data - Background (human PPARγ- LBD; 20 µM): 0.813 RLU; Raw Data (human PPARγ- LBD; 100 µM): 0.245 RLU; Raw Data - Background (human PPARγ- LBD; 100 µM): 0.01 RLU
C=CCc1ccc(OCC(=O)Nc2ccccc2Cl)c(OC)c1 [Compound 1f, 2-(4-Allyl-2-methoxyphenoxy)-N-(2-chlorophenyl)acetamide]	5.15 µM	1.795 RLU	2.02 RLU	1.801 RLU	2.04 RLU	15.17 ± 0.64%	25.09 ± 0.66%	41.88 ± 0.55%	49.50 ± 0.46%	58.61 ± 0.38%	73.43 ± 0.36%	85.79 ± 0.18%	55 µM	7.74 ± 0.34%	13.6 ± 0.23%	24.4 ± 0.48%	31 ± 0.55%	43.08 ± 0.43%	50%	62.41 ± 0.42%	Raw Data (human PPARγ- LBD; 0.00128 µM): 1.764 RLU; Raw Data - Background (human PPARγ- LBD; 0.00128 µM): 2 RLU; Raw Data (human PPARγ- LBD; 0.0064 µM): 1.826 RLU; Raw Data - Background (human PPARγ- LBD; 0.0064 µM): 2.061 RLU; Raw Data (human PPARγ- LBD; 0.032 µM): 1.766 RLU; Raw Data - Background (human PPARγ- LBD; 0.032 µM): 1.99 RLU; Raw Data (human PPARγ- LBD; 0.16 µM): 1.711 RLU; Raw Data - Background (human PPARγ- LBD; 0.16 µM): 1.945 RLU; Raw Data (human PPARγ- LBD; 0.8 µM): 1.881 RLU; Raw Data - Background (human PPARγ- LBD; 0.8 µM): 2.056 RLU; Raw Data (human PPARγ- LBD; 4 µM): 1.247 RLU; Raw Data - Background (human PPARγ- LBD; 4 µM): 1.542 RLU; Raw Data (human PPARγ- LBD; 20 µM): 0.799 RLU; Raw Data - Background (human PPARγ- LBD; 20 µM): 0.862 RLU; Raw Data (human PPARγ- LBD; 100 µM): 0.7757 RLU; Raw Data - Background (human PPARγ- LBD; 100 µM): 0.9427 RLU
C=CCc1ccc(OCC(=O)Nc2cccc(Cl)c2)c(OC)c1 [Compound 1e, 2-(4-Allyl-2-methoxyphenoxy)-N-(3-chlorophenyl)acetamide]	11.5 µM	2.087 RLU	1.839 RLU	1.860 RLU	1.610 RLU	12.36 ± 0.48%	19.68 ± 0.38%	34.50 ± 0.36%	42.00 ± 0.56%	51.04 ± 0.46%	66.05 ± 0.36%	75.09 ± 0.36%	58.1 µM	5.49 ± 0.43%	9.47 ± 0.39%	15.7 ± 0.24%	22.35 ± 0.18%	38.61 ± 0.3%	48.21 ± 0.18%	56.62 ± 0.37%	Raw Data (human PPARγ- LBD; 0.00128 µM): 1.903 RLU; Raw Data - Background (human PPARγ- LBD; 0.00128 µM): 1.678 RLU; Raw Data (human PPARγ- LBD; 0.0064 µM): 1.927 RLU; Raw Data - Background (human PPARγ- LBD; 0.0064 µM): 1.692 RLU; Raw Data (human PPARγ- LBD; 0.032 µM): 1.988 RLU; Raw Data - Background (human PPARγ- LBD; 0.032 µM): 1.752 RLU; Raw Data (human PPARγ- LBD; 0.16 µM): 1.922 RLU; Raw Data - Background (human PPARγ- LBD; 0.16 µM): 1.688 RLU; Raw Data (human PPARγ- LBD; 0.8 µM): 1.820 RLU; Raw Data - Background (human PPARγ- LBD; 0.8 µM): 1.683 RLU; Raw Data (human PPARγ- LBD; 4 µM): 1.752 RLU; Raw Data - Background (human PPARγ- LBD; 4 µM): 1.522 RLU; Raw Data (human PPARγ- LBD; 20 µM): 1.018 RLU; Raw Data - Background (human PPARγ- LBD; 20 µM): 0.721 RLU; Raw Data (human PPARγ- LBD; 100 µM): 0.834 RLU; Raw Data - Background (human PPARγ- LBD; 100 µM): 0.586 RLU
O=C(O)Cc1ccccc1Nc1c(Cl)cccc1Cl [Standard Diclofenac, Diclofenac, reference compound]	–	–	–	–	–	15.99 ± 0.64%	26.93 ± 0.55%	43.54 ± 0.48%	52.58 ± 0.48%	62.30 ± 0.59%	76.87 ± 0.64%	90.77 ± 0.36%	48.1 µM	10.2 ± 0.55%	15.3 ± 0.43%	28.2 ± 0.61%	38.93 ± 0.37%	49.5 ± 0.51%	60.29 ± 0.36%	68.54 ± 0.43%	HRBC membrane stabilization (percentage protection against HRBC lysis) ([1]; 400 µM, listed as diclofenac sodium): 90.77% and 90%
